Experiment [1] concerns CT26 murine colon tumor cells. Nature of the experiment: Anti-tumor activity with or without poly-ICLC, CT26 murine tumor model (Example 13). The class given is in vivo. The conditions noted are these: CT26 tumor-bearing BALB/c mice, n=10, day 25 post-tumor implantation, relative to PBS or poly-ICLC alone. On the procedure:
The goal of this experiment was to determine the requirement for the inclusion of the adjuvant poly-ICLC in a peptide vaccine containing ANCER™ selected neoantigens. For this experiment, female BALB/c mice were implanted subcutaneously with 3×10^5 CT26 murine colon tumor cells. Tumor growth was monitored by caliper measurement and mice were sacrificed 45 days after tumor implantation or when tumor volumes reached 2000 mm^3, whichever came first.
Four vaccine groups were tested (n=10 mice/group): • Group 1=PBS only • Group 2=PBS with 50 μg poly-ICLC • Group 3=20 ANCER™ selected (uncapped) peptides with 50 μg poly-ICLC • Group 4=20 ANCER™ selected (uncapped) peptides only
Peptide vaccines were comprised of 20 different ANCER™ selected peptides at a concentration of 5 μg/peptide for a total dose of 100 μg peptide per immunization. Mice were immunized subcutaneously in the opposite flank from tumor implantation twice per week for three weeks, starting at day 4 post-tumor implantation.

Experiment [2] has as its system CT26 tumor cells. Description: CT26 tumor growth / survival after vaccination (Example 1). In kind it is in vivo. The conditions noted are these: CT26 tumor-bearing Balb/c mice.

poly-ICLC: in experiment [1], the “control of tumor growth” value is given as “no difference in tumor growth kinetics”. In addition, the “tumor burden compared to Group 1 (mice immunized with PBS)” value in experiment [2] (50 μg sc days 5, 8, 12, 15, 19, 22, 26) was “no reduction in tumor burden”. Moreover, in experiment [2] (N=10), the “mice surviving past day 28” value was “Less than 50%” and the “mice surviving the 45 days of the experiment (in words)” value is recorded as “None”. The “mice reaching a tumor volume of at least 2,000 mm^3 (endpoint) by day 28” value in experiment [2] (N=10, day 28, PBS group 70%) was 60%.

The values above are taken from patent US20220362365A1, “IMPROVED COMPOSITIONS AND METHODS FOR SHARED NEO-EPITOPE VACCINES” (Epivax Therapeutics Inc., priority 2019, published 2022).
